# Measurements published in PMC11345766, “Computational Design of Pore-Forming Peptides with Potent Antimicrobial and Anticancer Activities” (Journal of Medicinal Chemistry, 2024).
# Columns and labels:
# E. coli (TOP10) = assay: Broth microdilution antimicrobial susceptibility assay; assay type: cell-based, Escherichia coli; details: Escherichia coli; 24 h, MHB
# From the text: (§1) To test antimicrobial activity, all peptides were initially screened, in a broth microdilution assay, against Gram-negative Escherichia coli (TOP10) and Gram-positive Staphylococcus carnosus (CCM 4838T) Biosafety Level 1 (BSL-1) bacteria (Table 2). […] Four other mutants (LP3, LP26, LP36, and LP39) had higher activity than LP1 against E. coli, and two mutants (LP23 and LP32) had higher activity than LP1 against S. carnosus. Six mutants (LP29, LP30, LP31, LP33, LP40, and LP43) were not active against one or both bacteria, even at the highest concentration tested (50 μM).
# (§2) Antimicrobial activity against E. coli TOP10 and S. carnosus CCM 4838T was tested using the broth microdilution assay. Bacteria were cultured in MHA Petri dish for 24 h, subcultured in an MHB test tube for 6 h at 37 °C, and diluted to 10^6 CFU/mL (OD600). […] Dilution series was prepared for concentrations 50 to 0.1 μM in a flat-bottom 96-well plate, inoculated with bacteria, and incubated for 24 h at 37 °C. Growth control wells were free from test compounds, and sterility control wells were free from bacteria. Bacterial MIC was determined as the lowest concentration of test compounds that inhibited visible growth of bacteria (i.e., no visible turbidity).
# S. carnosus (CCM 4838T) = assay: microbe, parasite or virus in culture; assay type: cell-based, Staphylococcus carnosus; details: Staphylococcus carnosus; 24 h, MHB; read-out: Antimicrobial activity (MIC) S. carnosus (CCM 4838T)
# From the text: as §1, §2
# ESKAPEE pathogens [1] = assay: MIC against five commercially available ESKAPEE strains (Figure 3a); assay type: cell-based
# Method: First, LP1 and five mutants (LP3, LP8, LP18, LP22, and LP28) were tested against five commercially available ESKAPEE strains (Figure 3a). Promising activity was obtained against Gram-negative Acinetobacter baumannii (GSAB 164), which is resistant to colistin and meropenem, followed by a quality control strain of E. coli (ATCC 25922). Micromolar activity, i.e., MIC of 1 μM, was obtained with both LP1 and LP18.
# (Protocol a) Antimicrobial activity test against ESKAPEE strains S. aureus NRS 1, K. pneumoniae ATCC 700603, A. baumannii GSAB 164, P. aeruginosa NCTC 13437, and E. coli ATCC 25922 was purchased from Evotec (UK).
# ESKAPEE pathogens [2] = assay: MIC against nine ampicillin-resistant ESKAPEE strains (Figure 3d); assay type: cell-based; details: 72 h
# ESKAPEE pathogens [3] = assay: MIC against six reference strains of ESKAPEE pathogens (Figure 3b); assay type: cell-based
# From the text: The effect of net charge was further investigated against six reference strains of ESKAPEE pathogens (Figure 3b).
# HL-60 = assay: cells; assay type: cell-based; details: Homo sapiens, Leukemia, RPMI-1640 + 10% FCS, 72 hours
# Method: (§3) The CellTiter-Glo luminescent cell viability assay examining the impact of peptides on 22 different human cell lines was purchased from Reaction Biology Europe GmbH (Germany). Cells were cultured in different media (Table S1), seeded into a flat-bottom 96-well plate, and incubated at 37 °C. After overnight incubation, test compounds were added with 1% PBS/0.3% Tween 20 and the reference compound bortezomib was added with 0.1% DMSO. Negative controls were solvents alone, and positive control was 10 μM staurosporine. After 72 h of incubation at 37 °C, 5 or 10% CO2 (dependent on the medium), and 1 h equilibration at room temperature, well plates were treated with CellTiter-Glo reagent (Promega) for an hour and luminescence was measured using a luminometer.
# (§4) Table S1. In vitro activity against 22 different human cancer cell lines.
# (§5) Sr. Cancer Activity (in M)
# (§6) no. Cell line type Culture medium
# (§7) The effect of investigated compounds on the proliferation of 22 different human cell lines is
# (§8) Twenty of these 22 cell lines represent specific cancer types and 2 were non-cancerous. Peptide
# (§9) Anticancer drug bortezomib was used as the […]
# MCF-7 = assay: cells; assay type: cell-based; details: Homo sapiens, MCF7; Breast; DMEM + 10% FCS; 72 hours
# Method: as §3, §4, §5, §6, §7, §8, §9
# PC3 = assay: cells; assay type: cell-based; details: Homo sapiens, PC-3; Prostate; DMEM + 10% FCS; 72 hours
# Method: as §3, §4, §5, §6, §7, §8, §9
# MOLT-4 = assay: cells; assay type: cell-based; details: Homo sapiens, Leukemia, DMEM + 10% FCS, 72 hours
# Method: as §3, §4, §5, §6, §7, §8, §9
# MDA MB 231 = assay: cells; assay type: cell-based; details: Homo sapiens, Breast, DMEM + 10% FCS, 72 hours
# Method: as §3, §4, §5, §6, §7, §8, §9
# A498 = assay: cells; assay type: cell-based; details: Homo sapiens, Kidney, DMEM + 10% FCS, 72 hours
# Method: as §3, §4, §5, §6, §7, §8, §9
# SW620 = assay: cells; assay type: cell-based; details: Homo sapiens, SW-620; Colorectal; DMEM + 10% FCS; 72 hours
# Method: as §3, §4, §5, §6, §7, §8, §9
# DU-145 = assay: cells; assay type: cell-based; details: Homo sapiens, Prostate, DMEM + 10% FCS, 72 hours
# Method: as §3, §4, §5, §6, §7, §8, §9
# U251MG = assay: cells; assay type: cell-based; details: Homo sapiens, U-251; Brain; DMEM + 10% FCS; 72 hours
# Method: as §3, §4, §5, §6, §7, §8, §9
# SK-OV3 = assay: cells; assay type: cell-based; details: Homo sapiens, SK-OV-3; Ovarian; DMEM + 10% FCS; 72 hours
# Method: as §3, §4, §5, §6, §7, §8, §9
# NHDF = assay: cells; assay type: cell-based; details: Homo sapiens; Non-cancerous; Promocell NHDF-Medium C-23010 + Sup. C39315; 72 hours
# Method: as §3, §4, §5, §6, §7, §8, §9
# A549 = assay: cells; assay type: cell-based; details: Homo sapiens, Lung, DMEM + 10% FCS, 72 hours
# Method: as §3, §4, §5, §6, §7, §8, §9
# MSC_UC = assay: cells; assay type: cell-based; details: Homo sapiens; Non-cancerous; Promocell MSC-Medium C-28010 + Sup. C39810; 72 hours
# Method: as §3, §4, §5, §6, §7, §8, §9
# H460 = assay: cells; assay type: cell-based; details: Homo sapiens, NCI-H460; Lung; DMEM + 10% FCS; 72 hours
# Method: as §3, §4, §5, §6, §7, §8, §9
# T-47D = assay: cells; assay type: cell-based; details: Homo sapiens, T47D; Breast; RPMI-1640 +10% FCS + 0,2U/mL Insulin; 72 hours
# Method: as §3, §4, §5, §6, §7, §8, §9
# K562 = assay: cells; assay type: cell-based; details: Homo sapiens, Leukemia, RPMI-1640 + 10% FCS, 72 hours
# Method: as §3, §4, §5, §6, §7, §8, §9
# Caki-1 = assay: cells; assay type: cell-based; details: Homo sapiens, Kidney, DMEM + 10% FCS, 72 hours
# Method: as §3, §4, §5, §6, §7, §8, §9
# HCT116 = assay: cells; assay type: cell-based; details: Homo sapiens, HCT-116; Colorectal; DMEM + 10% FCS; 72 hours
# Method: as §3, §4, §5, §6, §7, §8, §9
# RPMI 8226 = assay: cells; assay type: cell-based, human; details: Homo sapiens, RPMI-8226; Myeloma; RPMI-1640 +10% FCS; 72 hours; read-out: Activity (in M), IC50
# Method: as §3, §4, §5, §6, §7, §8, §9
# MDA MB 435 = assay: cells; assay type: cell-based, human; details: Homo sapiens, MDA-MB-435; Melanoma; RPMI-1640 +10% FCS; 72 hours; read-out: Activity (in M), IC50
# Method: as §3, §4, §5, §6, §7, §8, §9
# HCT-15 = assay: cells; assay type: cell-based, human; details: Homo sapiens, HCT-15; Colorectal; RPMI-1640 +10% FCS; 72 hours; read-out: Activity (in M), IC50
# Method: as §3, §4, §5, §6, §7, §8, §9
# OVCAR-3 = assay: cells; assay type: cell-based, human; details: Homo sapiens, OVCAR-3; Ovarian; RPMI-1640 +10% FCS; 72 hours; read-out: Activity (in M), IC50
# Method: as §3, §4, §5, §6, §7, §8, §9
compound,measurement,setting,value
CC1(C)S[C@@H]2[C@H](NC(=O)[C@H](N)c3ccccc3)C(=O)N2[C@H]1C(=O)O [Ampicillin],MIC,E. coli (TOP10),12.5 µM
same,MIC,S. carnosus (CCM 4838T),0.1 µM
same,MIC,ESKAPEE pathogens [1],> 180 µM
same,MIC,ESKAPEE pathogens [2],> 360 µM
same,MIC,ESKAPEE pathogens [3],> 92 µM
CC(C)C[C@H](NC(=O)[C@H](Cc1ccccc1)NC(=O)c1cnccn1)B(O)O [Bortezomib],IC50,HL-60,4.1 nM
same,IC50,MCF-7,21 nM
same,IC50,PC3,16 nM
same,IC50,MOLT-4,4 nM
same,IC50,MDA MB 231,12 nM
same,IC50,A498,9.1 nM
same,IC50,SW620,10 nM
same,IC50,DU-145,16 nM
same,IC50,U251MG,19 nM
same,IC50,SK-OV3,19 nM
same,IC50,NHDF,14 nM
same,IC50,A549,25 nM
same,IC50,MSC_UC,4.7 nM
same,IC50,H460,26 nM
same,IC50,T-47D,8.6 nM
same,IC50,K562,9.1 nM
same,IC50,Caki-1,12 nM
same,IC50,HCT116,6.9 nM
same,IC50,RPMI 8226,3.2 nM
same,IC50,MDA MB 435,4.3 nM
same,IC50,HCT-15,9.8 nM
same,IC50,OVCAR-3,4 nM
